Like-named read-outs stand apart in the source and are kept apart here. Values belong to the compound of their own block, whether it stands above or below them.
What was measured:
[1] = Titration (66% N,N-dimethylformamide/water); format: physicochemical; conditions: 66% dmf/water
Source text: Titration (66% N,N-dimethylformamide/water) pKa 5.5, 7.5, 11.2.

[2] = Stability of the crystal form; format: physicochemical; conditions: prolonged periods of time
[3] = Absorption following oral administration; format: in vivo
Peptostrept. intermedius = assay: Activity against anaerobic cocci
[4] = test system: Peptostreptococcus anaerobius; assay: Activity against anaerobic cocci
Pharmacokinetics = format: in vivo; conditions: in words; tetrahydrate, oral
[5] = Solubility (saturated solution in water at 37° C.); format: physicochemical; conditions: for solubility: water, 37° C.
Procedure: For example, the compound forms a saturated solution in water at 37° C. according to the following table: […]

gram positive = conditions: background statement; cited from earlier work
[6] = background statement; cited from earlier work
[7] = background statement; cited from earlier work; remark: listed apart in the source

- pKa ([1]; first value): 5.5
- pKa ([1]; second value): 7.5
- pKa ([1]; third value): 11.2
- pharmacokinetics (Pharmacokinetics): favorable pharmacokinetics
- solubility in water ([5]; in words): only minimally soluble in water
- solubility ([5]; pH 1.2): 8600 µg/mL
- solubility ([5]; pH 2.0): 1700 µg/mL
- solubility ([5]; pH 3.0): 200 µg/mL
- solubility ([5]; pH 4.0): 200 µg/mL
- solubility ([5]; pH 5.0): 200 µg/mL
- solubility ([5]; pH 6.0): 300 µg/mL
- solubility ([5]; pH 7.0): 800 µg/mL
- solubility ([5]; pH 7.5): 1200 µg/mL
- solubility ([5]; pH 8.0): 4100 µg/mL
- solubility ([5]; pH 8.5): 7500 µg/mL
SMILES: CC1=C(C(=O)O)N2C(=O)C(NC(=O)[C@H](N)c3ccc4ccccc4c3)C2SC1 (stereo partly drawn) [7-(D-2-naphthylglycylamido)-3-methyl-3-cephem-4-carboxylic acid tetrahydrate]
- stability [2]: very stable for prolonged periods of time
- absorption following oral administration [3]: very well absorbed following oral administration
- effective against anaerobic cocci (Peptostrept. intermedius): effective
- effective against anaerobic cocci [4]: effective

SMILES: CC1=C(C(=O)O)N2C(=O)C(NC(=O)[C@H](N)c3ccc4ccccc4c3)C2SC1 (stereo partly drawn) [7-(D-2-Naphthylglycylamido)-3-methyl-3-cephem-4-carboxylic acid]
- gram positive activity (gram positive): excellent gram positive activity
- pharmacokinetics [6]: favorable pharmacokinetics
- orally active antibiotic [7]: potent orally active antibiotic
